Where a SMILES comes first, the peptide text is derived from it. The star is where a group is joined. Cbz = O=C(OCc1ccccc1)*
B1: [35S]PY-Sic1(Ubn): [35S]-labeled polyubiquitinated PY-Sic1 model substrate of the 26S proteasome (protein, UniProt P38634 1-284, looked up)
Protein SIC1: MTPSTPPRSRGTRYLAQPSGNTSSSALMQGQKTPQKPSQNLVPVTPSTTKSFKNAPLLAPPNSNMGMTSPFNGLTSPQRSPFPKSSVKRTLFQFESHDNGTVREEQEPLGRVNRILFPTQQNVDIDAAEEEEEGEVLLPPSRPTSARQLHLSLERDEFDQTHRKKIIKDVPGTPSDKVITFELAKNWNNNSPKNDARSQESEDEEDIIINPVRVGKNPFASDELVTQEIRNERKRAMLRENPDIEDVITYVNKKGEVVEKRRLTDEEKRRFKPKALFQSRDQEH
modifications: 35S label, PY motif, polyubiquitinated
notes: [35S]-labeled polyubiquitinated PY-Sic1 model substrate of the 26S proteasome

Tests used:
26S proteasomes = test: In vitro Sic1 degradation assay; type: biochemical, rat
Description: The substrate degradation reaction was carried out at room temperature in 50-100 μL total volume containing 10 nM 26S, 1×ATP buffer, and 100 nM [35S]Sic1-Ubn. 5 μL reaction aliquots were removed at various time points and separated on a 4-20% gradient gel followed by autoradiography. Alternately, aliquots were added to 10% trichloroacetic acid (TCA) or ddH20 on ice for 30 min and 2 mg/mL bovine serum albumin as a carrier. Samples were centrifuged at 12,000×g for 30 min, and the supernatant removed for analysis by scintillation spectrometry. The percent of degradation was determined by dividing the measured counts after TCA precipitation by the total counts measured in ddH20. To assess the ubiquitin-dependence of degradation, [35S]Sic1-Ubn was pretreated with 10 nM Usp2 cc (Baker et al., 2005) for 30 min at 37° C. prior to the addition of proteasomes. To inhibit substrate degradation, 26S proteasomes were pretreated with 10 μM MG132 (Biomol) prior to the addition of substrate. The initial rate of degradation was determined by least-squares linear regression analyses of 5, 10, and 20 min time points using Sigmaplot. The dependence of the initial rate of degradation on substrate concentration was plotted, and the data fit to the Michaelis-Menten equation using Sigmaplot.

[1] = test system: HEK293 cells stably expressing GFP-CL1, UbG76V-GFP, Ub-R-GFP or cODC-GFP; test: Fluorescent proteasome reporters challenged with proteasome inhibitor; type: cell-based; details: 10 μM MG-132, all four reporters
Description: FIG. 6 depicts features of fluorescent proteasome reporters, used in embodiments of the present invention. Untransfected HEK293 cells, and cells stably expressing GFP-CL1, UbG76V-GFP, Ub-R-GFP or cODC-GFP were treated with 10 μM MG-132 and at the times indicated, mean GFP fluorescence was analyzed by flow cytometry (Panel A) or by fluorescence microscopy of living cells (Panel B). […] Cells were incubated overnight at the permissive temperature 32° C. (black bars), at 32° C. in the presence of 10 μM MG-132 (white bars) or at the non-permissive temperature 40° C. (grey bars). Mean GFP fluorescence was analyzed by flow cytometry, and plotted as relative fluorescence change. […] HEK293 cells stably expressing UbG76V-GFP or GFP were transiently transfected with httchFP, and analyzed as described in FIG. 1B. […] Htt(Q91)-chFP-specific GFP fluorescence is plotted for GFP (♦) and UbG76V-GFP expressing cells (▪).
Unless indicated, cells were harvested 72 hrs after transfection and analyzed with a Becton-Dickinson LSRII flow cytometer with a 488 nm and a 535 nm Laser (BD, Franklin Lakes, N.J.). To ensure a sufficient number of cells with elevated levels of the transfected protein, over 200,000 cells were analyzed per condition in a typical experiment. […] Raw flow cytometry data were analyzed using FlowJo (version 8.8.6, Tree Star) software. […]

Molecule	effect on degradation of PY-Sic1(Ubn) by purified proteasomes (26S proteasomes; 10 μM MG132, 10 nM 26S, 100 nM substrate)	fluorescence of GFP-degron proteasome reporters [1]	Km (26S proteasomes; 10 nM 26S proteasomes, read-out: Km of [35S]PY-Sic1(Ubn) degradation (Michaelis-Menten analysis)) [µM]
CC(C)C[C@@H](C=O)NC(=O)[C@H](CC(C)C)NC(=O)[C@H](CC(C)C)NC(=O)OCc1ccccc1 [MG132] (Cbz-Leu-Leu-Leu-aldehyde)	inhibited	diffuse time-dependent increases in cytoplasmic fluorescence	
B1			0.0469 ± 0.0035
